Here are results for two compounds from US5807855A, “1-piperazino-1,2-dihydroindene derivatives” (priority 1992, dated 1998).

One series addresses T1, 5-HT2 receptors (Rattus norvegicus, UniProt P14842).
T1 construct: 5-HT2 receptors in membranes from rat cortex; from tissue; host or cells: membranes from rat cortex
Briefly: Inhibition of 3H-ketanserin binding to 5-HT2 receptors in membranes from rat cortex. The settings on record: Receptor Binding, IC50, 5-HT2 3H-Ket. As for the experimental part: Receptor binding studies.
5-HT2 receptors. Inhibition of ^3 H-ketanserin binding to 5-HT2 receptors in membranes from rat cortex was determined as described by Hyttel, J. Acta. Pharmacol. Toxicol.

Series [1] is described as follows: Cataleptogenic effect in rats. The note with it: rat, in vivo, maximum effect 1-6 h after administration, read-out: ED50 in the catalepsy test. As for the experimental part:
Cataleptogenic effect in rats.
Catalepsy was measured every hour 1-6 h after test drug administration on a vertical wire grid and defined as being present after at least 15-simmobility. The maximum effect between 1-6 h after administration was reported. A total of 8-12 animals were used per dose.

Series [2] deals with T2, DA D1 receptor (Rattus norvegicus, UniProt P18901). The experiment in a line: Antagonism of SK&F 38393-induced circling behavior in rats with unilateral 6-OHDA lesions. It counts as in vivo. The arrangement: circling behavior in rats with unilateral 6-OHDA lesions; from tissue; host or cells: living rats with unilateral 6-OHDA lesions. The settings on record: 2 h. As for the experimental part: Antagonism of SK&F 38393-induced circling behavior in rats with unilateral 6-OHDA lesions.
T2 sequence (P18901 whole entry): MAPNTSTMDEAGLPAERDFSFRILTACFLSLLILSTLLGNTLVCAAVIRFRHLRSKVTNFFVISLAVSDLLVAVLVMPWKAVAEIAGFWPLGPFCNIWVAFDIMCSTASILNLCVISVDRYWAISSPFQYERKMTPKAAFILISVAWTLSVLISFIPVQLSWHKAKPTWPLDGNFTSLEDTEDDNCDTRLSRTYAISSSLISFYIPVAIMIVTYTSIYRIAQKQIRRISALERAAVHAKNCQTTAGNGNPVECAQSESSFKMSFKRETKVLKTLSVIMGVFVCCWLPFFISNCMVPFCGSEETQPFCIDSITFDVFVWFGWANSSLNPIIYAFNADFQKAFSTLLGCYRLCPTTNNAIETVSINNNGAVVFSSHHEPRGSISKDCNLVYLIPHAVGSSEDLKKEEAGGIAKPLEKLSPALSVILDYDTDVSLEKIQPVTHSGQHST
This test is a test for the DA D1 receptor antagonistic effect in vivo.
The experiments were performed as described by Arnt, J. and Hyttel, J. J. Neural. Transm. 1986, 67, 225-240. The experiments were done 2-9 months after lesioning when stable contralateral circling response to 2,3,4,5-tetrahydro-7,8-dihydroxy-1-phenyl-1H-3-benzazepine, hydrochloride (SK&F 38393) (4.3 μmol/kg=1.4 mg/kg) were obtained. The test compounds were injected 2 h before administration of SK&F 38393. Antagonistic effect were calculated as percent inhibition of control responses for each rat. Four to eight animals were used per dose.

For the next series, the target named is T3, DA D2 receptors (Rattus norvegicus, UniProt P61169).
T3 construct: DA D2 receptors in rat striatal membranes; from tissue; host or cells: rat striatal membranes
T3 sequence (P61169 whole entry): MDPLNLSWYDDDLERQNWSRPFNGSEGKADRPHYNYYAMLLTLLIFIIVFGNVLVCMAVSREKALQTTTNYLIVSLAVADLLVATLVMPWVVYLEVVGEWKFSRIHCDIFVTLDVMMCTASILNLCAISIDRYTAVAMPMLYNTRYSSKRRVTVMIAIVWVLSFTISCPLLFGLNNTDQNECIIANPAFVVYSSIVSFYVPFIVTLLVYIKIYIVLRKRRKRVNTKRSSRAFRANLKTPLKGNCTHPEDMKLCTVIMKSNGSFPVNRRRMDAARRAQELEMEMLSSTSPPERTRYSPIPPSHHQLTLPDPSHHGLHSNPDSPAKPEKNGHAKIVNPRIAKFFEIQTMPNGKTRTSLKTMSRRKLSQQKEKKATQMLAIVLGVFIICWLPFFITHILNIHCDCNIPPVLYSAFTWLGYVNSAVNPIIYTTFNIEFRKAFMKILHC
The experiment in a line: Inhibition of 3H-spiperone binding to DA D2 receptors in rat striatal membranes. The settings on record: rat striatal membranes, 3H-spiperone; read-out: Receptor Binding; IC50, D2 3H-Spi.

Series [3] concerns the target T2, DA D1 receptor. Briefly: biochemical. The settings on record: Receptor Binding; IC50, D1 3H-SCH. The series is classed as binding.
The subject of series [4] is DA uptake. Briefly: Inhibition of DA uptake in vitro. It counts as biochemical. As to the method: Inhibition of DA Uptake in Vitro was determined as described by K. P. B.o slashed.ges.o slashed., J. Med. Chem. 1983, 26, 935-947.
Series [5] relates to DA uptake. The settings on record: cited from earlier work.

T1 sequence (P14842 whole entry): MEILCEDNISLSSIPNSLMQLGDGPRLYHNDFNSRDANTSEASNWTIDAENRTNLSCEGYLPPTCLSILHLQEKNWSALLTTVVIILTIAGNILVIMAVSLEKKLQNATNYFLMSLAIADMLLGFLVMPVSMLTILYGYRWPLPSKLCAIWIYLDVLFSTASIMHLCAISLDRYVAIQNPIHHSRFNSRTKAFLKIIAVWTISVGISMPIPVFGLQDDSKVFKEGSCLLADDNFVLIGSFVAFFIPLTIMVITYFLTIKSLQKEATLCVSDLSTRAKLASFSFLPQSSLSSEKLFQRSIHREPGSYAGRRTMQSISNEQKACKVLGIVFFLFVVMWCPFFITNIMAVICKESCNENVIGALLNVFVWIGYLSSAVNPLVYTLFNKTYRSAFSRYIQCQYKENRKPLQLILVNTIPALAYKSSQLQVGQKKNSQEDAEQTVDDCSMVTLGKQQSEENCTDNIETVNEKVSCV

As usually defined, the ED50 is the dose at which the effect has come halfway, by size or by number of responders. As for `CN1CCN([C@@H]2C[C@@H](c3ccc(F)cc3)c3ccc(F)cc32)CC1(C)C` (racemic) [Compound 38, (±)-Trans-4-[6-fluoro-3-(4-fluorophenyl)-2,3-dihydro-1H-inden-1-yl]-1,2,2-trimethyl piperazine], the IC50 at 5-HT2 receptors came out at 3.6 nM; at DA D2 receptors it was 11 nM; at DA D1 receptor [3] it was 0.88 nM; in the series on DA uptake [4] it was 9 nM. In addition, the ED50 in series [1] was greater than 68 µmol/kg; on DA D1 receptor [2], 0.5 µmol/kg.
Regarding `COC(=O)[C@H]1[C@@H](OC(=O)c2ccccc2)C[C@@H]2CC[C@H]1N2C` [cocaine], the “DA uptake inhibition (in words)” value in the series on DA uptake [5] is reported as “inhibitor of DA uptake”.
